Where two headings read alike, the source gives them in different places.
Tests used:
GSPT1 = GSPT1 (Homo sapiens (Human), UniProt P15170+Q96SW2); test: immunofluorescence assay for GSPT1 degradation in CAL-51 cells (Example 4); assay type: cell-based
Method: The representative compounds were tested in an immunofluorescence assay for their activity to bind to degrade GSPT1. CAL-51 cells were purchased from DSMZ (cat. Number ACC302), sub-cultured in 90% Dulbecco's MEM (4.5 g/L glucose, Gibco 11965) +10% heat inactivated FBS (BioConcept, 2-01F136I) and incubated at 37° C., 5% CO2. For the assay, imaging microtiterplate Cell Carrier 96 Ultra (Perkin Elmer 6055302) were pre-coated with Fibronectin (Sigma F085, 30 μl at 0.2 μg/ml) in PBS (100 μl, Gibco 14190) for 45 min at room temperature, rinsed with PBS and CAL-51 cells (30 K cells/well) were plated and let to adhere overnight. Cells were treated with compounds typically using a serial dilution ranging from 30 μM to 0.1 nM for 6 hours. Compounds were stored at 10 mM DMSO stocks. Vehicle (DMSO), positive (CC-885, 10 μM) and rescue controls (positive control plus 0.2 μM bortezomib) were also included atthis stage. Cells were subsequently rinsed with PBS and fixed in 10% Formalin solution (50 μl, Sigma HT5011)) for 20 mins at room temperature. Following three consecutive PBS washes (100 μl), cells were permeabilized in 0.1% Triton X-100 in PBS (Sigma 93443, 50 μl) for 15 mins at room temperature. Following three further PBS washes, 50 μl blocking buffer (1% BSA, Sigma A4503, in PBS) was added for 45 min for signal-to-noise reduction.
Primary antibody (human GSPT1, Sigma HPA052488) was diluted in blocking buffer (dil.1/300, 35 μl/well) and incubated with the cells overnight at 4° C. After three PBS washes, Alexa-fluor 488 coupled secondary antibodies (Invitrogen, A32731, dil.1/1000), Alexa-fluor 647-Phalloidin (Invitrogen, A22287, dil.1/200) and DAPI (Thermo, #62248, dil.1/1000) were diluted in blocking buffer and incubated with the samples for 2 hours at room temperature. After three final PBS washes, samples were conserved in 100 μl PBS in the dark, until measurement. Image acquisition was performed on the Operetta High-Content Imager (Perkin-Elmer). Fluorescence intensity of Alexa-Fluor 488 (GSPT1), Alexa-Fluor 647 (Actin) and DAPI (Nucleus) were measured. For the determination of GSPT1 DC50 values, a custom algorithm implemented in the PerkinElmer image analysis software Harmony-Acapella® was developed. After user-defined setting of adjustment parameters, the analysis was run identically without human intervention for all image fields. DAPI staining of the nuclei was used to determine the location of cells using standard nuclei detection modules. Segmentation artifacts were removed by threshold-based filters for area, roundness and intensity. The outline of the cells was determined analogously from the sum of the normalized, smoothed DAPI and Actin channel, starting from each nucleus. The Alexa-Fluor 488 (GSPT1) signal intensity in each cell was finally measured, in order to obtain a Mean intensity per cell. GSPT1 degradation (DC50) was calculated after normalization to controls and data import in CDD vault Database, using non-linear regression.

[1] = molecular target: Full length wild-type cereblon CRBN (Homo sapiens (Human), UniProt Q96SW2); test: fluorescence polarization (FP) assay, cereblon binding
Sequence of Full length wild-type cereblon CRBN (Q96SW2 whole entry): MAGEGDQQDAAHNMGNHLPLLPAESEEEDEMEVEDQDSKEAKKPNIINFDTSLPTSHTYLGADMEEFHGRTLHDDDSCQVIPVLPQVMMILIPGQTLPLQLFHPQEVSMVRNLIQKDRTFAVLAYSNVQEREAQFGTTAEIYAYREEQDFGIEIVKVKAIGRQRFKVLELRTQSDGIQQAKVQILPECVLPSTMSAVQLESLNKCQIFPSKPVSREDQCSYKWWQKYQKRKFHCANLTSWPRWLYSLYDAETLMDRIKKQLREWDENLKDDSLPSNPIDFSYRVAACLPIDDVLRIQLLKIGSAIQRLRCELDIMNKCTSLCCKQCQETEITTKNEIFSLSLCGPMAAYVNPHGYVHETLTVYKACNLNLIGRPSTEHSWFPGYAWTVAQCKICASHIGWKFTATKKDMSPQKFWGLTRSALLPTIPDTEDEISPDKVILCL
Description: Compound activity was monitored in a fluorescence polarization (FP) homogeneous assay using 1-[5-({2-[2-(2-{[2-(2,6-dioxopiperidin-3-yl)-1,3-dioxo-2,3-dihydro-1H-isoindol-4-yl]oxy}acetamido)ethoxy]ethyl}carbamoyl)pentyl]-3,3-dimethyl-2-[(1E,3E)-5-[(2E)-1,3,3-trimethyl-5-sulfo-2,3-dihydro-1H-indol-2-ylidene]penta-1,3-dien-1-yl]-3H-indol-1-ium-5-sulfonate as a fluorescent probe. Unless otherwise stated, all reagents were purchased from Sigma Aldrich. […] Full length wild-type cereblon CRBN (80.0 nM, 10 μL) was incubated in assay buffer containing 20 mM HEPES (pH 8.0), […], 0.5 mM TCEP and 0.05% Tween 20 in the presence or absence of compound (300 nL). Inhibitors were stored as 10 mM DMSO stocks in an inert environment (low humidity, dark, low oxygen, room temperature) using the Storage Pod System. […] Following incubation at room temperature for 30 min, the assay was initiated by dispensing the probe to a final concentration of 5 nM (2.5 nL of a 20 μM stock) using the Echo ESXX. […] The FP signal was subsequently normalized to the no-compound control (i.e., DMSO). Analysis and IC50 values were derived using Dotmatics (Dotmatics UK) software.

[2] = 6 hours, read-out: Activity for GSPT1 degradation, Code (DC50)
[3] = GSPT1 degradation, read-out: DC50 value

Sequence of GSPT1 (P15170 whole entry): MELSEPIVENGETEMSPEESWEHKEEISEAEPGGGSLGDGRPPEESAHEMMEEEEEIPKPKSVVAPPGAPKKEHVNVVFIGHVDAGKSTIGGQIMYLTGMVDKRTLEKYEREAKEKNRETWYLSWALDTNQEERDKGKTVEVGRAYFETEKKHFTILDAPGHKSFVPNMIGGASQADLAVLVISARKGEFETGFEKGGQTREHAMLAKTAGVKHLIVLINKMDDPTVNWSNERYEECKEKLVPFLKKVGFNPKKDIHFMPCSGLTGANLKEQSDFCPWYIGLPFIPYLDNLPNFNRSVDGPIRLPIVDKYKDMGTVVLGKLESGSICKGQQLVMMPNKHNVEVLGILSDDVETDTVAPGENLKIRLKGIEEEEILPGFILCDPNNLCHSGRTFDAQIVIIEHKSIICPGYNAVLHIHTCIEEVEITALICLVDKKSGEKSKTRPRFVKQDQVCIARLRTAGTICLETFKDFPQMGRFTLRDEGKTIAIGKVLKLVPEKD
Sequence of GSPT1 (Q96SW2 whole entry): as the sequence (Q96SW2 whole entry) above
Sequence of GSPT1 (Q16531 2-1140 partner): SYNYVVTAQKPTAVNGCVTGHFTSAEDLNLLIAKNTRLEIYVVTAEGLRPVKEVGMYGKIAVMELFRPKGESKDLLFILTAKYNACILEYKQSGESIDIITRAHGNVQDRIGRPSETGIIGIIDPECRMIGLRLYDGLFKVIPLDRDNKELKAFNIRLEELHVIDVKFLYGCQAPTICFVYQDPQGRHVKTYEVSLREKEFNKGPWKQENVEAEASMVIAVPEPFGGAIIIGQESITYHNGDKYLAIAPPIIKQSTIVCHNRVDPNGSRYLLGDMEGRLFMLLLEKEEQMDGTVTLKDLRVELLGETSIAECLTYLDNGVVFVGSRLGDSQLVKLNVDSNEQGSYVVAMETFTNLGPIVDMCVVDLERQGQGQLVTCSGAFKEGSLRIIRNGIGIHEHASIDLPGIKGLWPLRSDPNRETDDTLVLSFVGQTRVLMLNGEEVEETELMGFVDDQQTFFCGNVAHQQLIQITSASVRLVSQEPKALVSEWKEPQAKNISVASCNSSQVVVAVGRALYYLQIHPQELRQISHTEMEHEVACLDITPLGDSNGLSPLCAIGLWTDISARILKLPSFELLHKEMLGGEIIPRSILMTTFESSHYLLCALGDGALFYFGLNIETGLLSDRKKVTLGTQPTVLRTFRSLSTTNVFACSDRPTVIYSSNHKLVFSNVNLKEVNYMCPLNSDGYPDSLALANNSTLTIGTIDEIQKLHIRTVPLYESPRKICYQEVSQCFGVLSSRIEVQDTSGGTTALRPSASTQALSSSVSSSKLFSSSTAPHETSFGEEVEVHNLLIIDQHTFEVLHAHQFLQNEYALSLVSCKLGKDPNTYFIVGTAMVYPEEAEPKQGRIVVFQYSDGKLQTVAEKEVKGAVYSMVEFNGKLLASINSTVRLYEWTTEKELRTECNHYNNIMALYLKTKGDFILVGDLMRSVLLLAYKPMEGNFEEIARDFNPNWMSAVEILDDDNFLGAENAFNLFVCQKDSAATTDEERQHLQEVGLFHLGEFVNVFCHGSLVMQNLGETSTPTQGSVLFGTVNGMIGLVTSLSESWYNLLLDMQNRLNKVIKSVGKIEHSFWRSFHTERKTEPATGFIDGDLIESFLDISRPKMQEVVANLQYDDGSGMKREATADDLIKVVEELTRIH

CC1(c2ccc(NC(=O)OCc3ccc4c(c3)C(=O)N(C3CCC(=O)NC3=O)C4)cc2)CC1 (centres unmarked) [Compound 58]
DC50 (GSPT1; [2]): < 0.03 µM
DC50 (GSPT1; [3]): ≤ 0.03 µM
IC50 ([1]; read-out: IC50 value): < 1.1 µM

O=C1CCC(N2Cc3ccc(COC(=O)Nc4cc(F)cc(OC(F)(F)F)c4)cc3C2=O)C(=O)N1 (centres unmarked) [Compound 57]
DC50 (GSPT1; [2]): < 0.03 µM
DC50 (GSPT1; [3]): ≤ 0.03 µM
IC50 ([1]; read-out: rFP IC50): > 1.7 µM

O=C1CCC(N2Cc3ccc(COC(=O)Nc4cc(Cl)cc(OC(F)F)c4)cc3C2=O)C(=O)N1 (centres unmarked) [Compound 19]
DC50 (GSPT1; [2]): 0.03 to 0.3 µM
IC50 ([1]; read-out: rFP IC50): > 1.7 µM

CC1CCCCN1c1ccc(NC(=O)OCc2ccc3c(c2)C(=O)N(C2CCC(=O)NC2=O)C3)cn1 (centres unmarked) [Compound 77]
DC50 (GSPT1; [2]): < 0.03 µM
DC50 (GSPT1; [3]): ≤ 0.03 µM
IC50 ([1]; read-out: IC50 value): < 1.1 µM

O=C1CCC(N2Cc3ccc(COC(=O)Nc4cnc(-c5ccccc5)c(F)c4)cc3C2=O)C(=O)N1 (centres unmarked) [Compound 85]
DC50 (GSPT1; [2]): < 0.03 µM
DC50 (GSPT1; [3]): ≤ 0.03 µM
IC50 ([1]; read-out: rFP IC50): > 1.7 µM

O=C1CCC(N2Cc3ccc(COC(=O)Nc4ccc(F)c(OC(F)F)c4)cc3C2=O)C(=O)N1 (centres unmarked) [Compound 32]
DC50 (GSPT1; [2]): 0.03 to 0.3 µM
IC50 ([1]; read-out: rFP IC50): > 1.7 µM

O=C1CCC(N2Cc3ccc(COC(=O)N4CCCCC4)cc3C2=O)C(=O)N1 (centres unmarked) [Compound 23]
DC50 (GSPT1; [2]): > 0.3 µM
IC50 ([1]; read-out: rFP IC50): < 0.5 µM

COc1ccccc1CNC(=O)OCc1ccc2c(c1)C(=O)N(C1CCC(=O)NC1=O)C2 (centres unmarked) [Compound 97]
DC50 (GSPT1; [2]): > 0.3 µM
IC50 ([1]; read-out: IC50 value): < 1.1 µM

O=C1CCC(N2Cc3ccc(COC(=O)Nc4cccc(OC5CC5)c4)cc3C2=O)C(=O)N1 (centres unmarked) [Compound 93]
DC50 (GSPT1; [2]): 0.03 to 0.3 µM
IC50 ([1]; read-out: IC50 value): < 1.1 µM

Cc1c(CN2CCOCC2)cc(NC(=O)OCc2ccc3c(c2)C(=O)N(C2CCC(=O)NC2=O)C3)cc1OC(F)F (centres unmarked) [Compound 25]
DC50 (GSPT1; [2]): < 0.03 µM
DC50 (GSPT1; [3]): ≤ 0.03 µM
IC50 ([1]; read-out: IC50 value): < 1.1 µM

Cc1c(Cl)cc(NC(=O)OCc2ccc3c(c2)C(=O)N(C2CCC(=O)NC2=O)C3)cc1OC1CCNC1 (centres unmarked) [Compound 44]
DC50 (GSPT1; [2]): 0.03 to 0.3 µM
IC50 ([1]; read-out: IC50 value): < 1.1 µM

O=C1CCC(N2Cc3ccc(COC(=O)NC45CC(c6ccccc6)(C4)C5)cc3C2=O)C(=O)N1 (centres unmarked) [Compound 126, (2-(2,6-dioxopiperidin-3-yl)-3-oxoisoindolin-5-yl)methyl (3-phenylbicyclo[1.1.1]pentan-1-yl carbamate]
DC50 (GSPT1; [2]): < 0.03 µM
DC50 (GSPT1; [3]): ≤ 0.03 µM
IC50 ([1]; read-out: rFP IC50): < 0.5 µM

Cc1ccccc1-c1ccc(NC(=O)OCc2ccc3c(c2)C(=O)N(C2CCC(=O)NC2=O)C3)cn1 (centres unmarked) [Compound 86]
DC50 (GSPT1; [2]): < 0.03 µM
DC50 (GSPT1; [3]): ≤ 0.03 µM
IC50 ([1]; read-out: IC50 value): < 1.1 µM

COc1ccccc1-c1ccc(NC(=O)OCc2ccc3c(c2)C(=O)N(C2CCC(=O)NC2=O)C3)cn1 (centres unmarked) [Compound 87]
DC50 (GSPT1; [2]): < 0.03 µM
DC50 (GSPT1; [3]): ≤ 0.03 µM
IC50 ([1]; read-out: IC50 value): < 1.1 µM

Cc1cc(NC(=O)OCc2ccc3c(c2)C(=O)N(C2CCC(=O)NC2=O)C3)cc(C)n1 (centres unmarked) [Compound 7]
DC50 (GSPT1; [2]): 0.03 to 0.3 µM
IC50 ([1]; read-out: IC50 value): < 1.1 µM

Cc1cc(C#N)cc(NC(=O)OCc2ccc3c(c2)C(=O)N(C2CCC(=O)NC2=O)C3)c1 (centres unmarked) [Compound 112, (2-(2,6-dioxopiperidin-3-yl)-3-oxoisoindolin-5-yl)methyl (3-cyano-5-methylphenyl)carbamate]
DC50 (GSPT1; [2]): 0.03 to 0.3 µM
IC50 ([1]; read-out: rFP IC50): < 0.5 µM

CC1COc2cc(NC(=O)OCc3ccc4c(c3)C(=O)N(C3CCC(=O)NC3=O)C4)ccc21 (centres unmarked) [Compound 103]
DC50 (GSPT1; [2]): 0.03 to 0.3 µM
IC50 ([1]; read-out: IC50 value): < 1.1 µM

O=C1CCC(N2Cc3ccc(COC(=O)NC4CCN(c5ccccn5)CC4)cc3C2=O)C(=O)N1 (centres unmarked) [Compound 35]
DC50 (GSPT1; [2]): > 0.3 µM
IC50 ([1]; read-out: rFP IC50): < 0.5 µM

Reference: patent US11912682B2, “Isoindolinone compounds” (Monte Rosa Therapeutics, Inc., priority 2021, dated 2024)
